In publication PMC8565515, “Dasabuvir Inhibits Human Norovirus Infection in Human Intestinal Enteroids” (mSphere, 2021):
Where a name gives a salt, the structure may show the parent alone. Read-outs that look alike come from different tables or passages of the source.

Assays:
[1] = tested on: GII.4 HuNoV; experiment: GII.4 HuNoV infection of HIE monolayers, viral genome equivalents by RT-qPCR; format: cell-based, human norovirus; details: compound 10 μM, n = 1, J2 HIE monolayers, GII.4 HuNoV, 24 hpi, normalized to DMSO control; for activity at 10 µM: Norovirus, 24 h, read-out: (%) HuNoV GEs
[2] = tested on: J2 HIE monolayers

`CCn1cc(C(=O)O)c(=O)c2cc(F)c(N3CCNCC3)nc21` [Enoxacin] was tested, and the activity at 10 µM [1] was 12.5% and the “(%) Cytotoxicity” value ([2]; human, 24 h, 10 μM) was 0.62%.
In the case of `C=C1[C@H](CO)[C@@H](O)C[C@@H]1n1cnc2c(=O)[nH]c(N)nc21` [Entecavir hydrate], the activity at 10 µM [1] is reported as 23.6% and the “(%) Cytotoxicity” value ([2]; human, 24 h, 10 μM) is reported as -1.04%.
In the case of `CC[C@@H](CO)NCCN[C@@H](CC)CO` [Ethambutol dihydrochloride], the activity at 10 µM [1] is reported as 100% and the “(%) Cytotoxicity” value ([2]; human, 24 h, 10 μM) is reported as 0.23%.
In the case of `CC(=O)OCC(CCn1cnc2cnc(N)nc21)COC(C)=O` [Famciclovir], the activity at 10 µM [1] is reported as 27.3% and the “(%) Cytotoxicity” value ([2]; human, 24 h, 10 μM) is reported as 0.72%.
With `O=c1[nH]c(=O)n([C@H]2C[C@H](O)[C@@H](CO)O2)cc1F` [Floxuridine] the activity at 10 µM [1] was 12.6% and the “(%) Cytotoxicity” value ([2]; human, 24 h, 10 μM) was 0.65%.
With `O=c1[nH]cc(F)c(=O)[nH]1` [Fluorouracil] the activity at 10 µM [1] was 27.4% and the “(%) Cytotoxicity” value ([2]; human, 24 h, 10 μM) was -0.47%.
`O=C(O)P(=O)(O)O` [Foscarnet sodium] was tested, and the activity at 10 µM [1] was 88.5% and the “(%) Cytotoxicity” value ([2]; human, 24 h, 10 μM) was 1.07%.
With `COc1cnc(-n2cnc(C)n2)c2c1c(C(=O)C(=O)N1CCN(C(=O)c3ccccc3)CC1)cn2COP(=O)(O)O` [Fostemsavir] the activity at 10 µM [1] was 87.3% and the “(%) Cytotoxicity” value ([2]; human, 24 h, 10 μM) was -2.34%.
`CCOC(=O)c1cccc(NC(=O)CCn2nc(C)c(S(=O)(=O)N3CCCCC3)c2C)c1` [G402-0849] was tested, and the “(%) HuNoV GEs” value [1] was 158.24% and the “(%) Cytotoxicity” value [2] was 1.12%.
In the case of `Nc1nc(O)c2ncn(COC(CO)CO)c2n1` [Ganciclovir], the activity at 10 µM [1] is reported as 117% and the “(%) Cytotoxicity” value ([2]; human, 24 h, 10 μM) is reported as 3.59%.
With `COC1=C2C[C@@H](C)C[C@H](OC)[C@H](O)[C@@H](C)/C=C(\C)[C@H](OC(N)=O)[C@@H](OC)/C=C\C=C(/C)C(=O)NC(=CC1=O)C2=O` [Geldanamycin] the activity at 10 µM [1] was 18.6% and the “(%) Cytotoxicity” value ([2]; human, 24 h, 10 μM) was 67.53%.
With `O[C@H]1[C@H](O)[C@@H](O)[C@H](O)[C@@H](O)[C@H]1O` [Inositol] the activity at 10 µM [1] was 44.9% and the “(%) Cytotoxicity” value ([2]; human, 24 h, 10 μM) was 2.88%.
With `CC(=O)N(CC(O)CO)c1c(I)c(C(=O)NCC(O)CO)c(I)c(C(=O)NCC(O)CO)c1I` (stereo not drawn) [Iohexol] the activity at 10 µM [1] was 55.3% and the “(%) Cytotoxicity” value ([2]; human, 24 h, 10 μM) was 1.11%.
With `O=C(/C=C/c1ccc(O)cc1)c1ccc(O)cc1O` [Isoliquiritigenin] the activity at 10 µM [1] was 172% and the “(%) Cytotoxicity” value ([2]; human, 24 h, 10 μM) was 0.86%.
`Nc1ccn([C@@H]2CS[C@H](CO)O2)c(=O)n1` [Lamivudine] was tested, and the activity at 10 µM [1] was 118% and the “(%) Cytotoxicity” value ([2]; human, 24 h, 10 μM) was 0.86%.
In the case of `CC1(C)O[C@H]2CC(=O)OC[C@]23[C@H]2CC[C@@]4(C)[C@H](c5ccoc5)OC(=O)[C@H]5O[C@]54[C@]2(C)C(=O)C[C@@H]13` [Limonin], the activity at 10 µM [1] is reported as 59.9% and the “(%) Cytotoxicity” value ([2]; human, 24 h, 10 μM) is reported as 0.73%.
`Cc1cccc(C)c1OCC(=O)N[C@@H](Cc1ccccc1)[C@@H](O)C[C@H](Cc1ccccc1)NC(=O)[C@H](C(C)C)N1CCCNC1=O` [Lopinavir] was tested, and the activity at 10 µM [1] was 102% and the “(%) Cytotoxicity” value ([2]; human, 24 h, 10 μM) was 9.07%.
In the case of `COc1cc(NC(=O)Nc2cccc(CNC(=O)O[C@H]3CCOC3)c2)ccc1-c1cnco1` [Merimepodib], the activity at 10 µM [1] is reported as 17% and the “(%) Cytotoxicity” value ([2]; human, 24 h, 10 μM) is reported as 0.74%.
In the case of `Clc1ccc(COC(Cn2ccnc2)c2ccc(Cl)cc2Cl)c(Cl)c1` (stereo not drawn) [Miconazole], the activity at 10 µM [1] is reported as 76.8% and the “(%) Cytotoxicity” value ([2]; human, 24 h, 10 μM) is reported as 25.21%.
In the case of `Cc1c(O)cccc1C(=O)N[C@@H](CSc1ccccc1)[C@H](O)CN1C[C@H]2CCCC[C@H]2C[C@H]1C(=O)NC(C)(C)C` [Nelfinavir Mesylate], the activity at 10 µM [1] is reported as 39.7% and the “(%) Cytotoxicity” value ([2]; human, 24 h, 10 μM) is reported as 4.06%.
`CC(=O)Oc1ccccc1C(=O)Nc1ncc([N+](=O)[O-])s1` [Nitazoxanide] was tested, and the activity at 10 µM [1] was 44.5% and the “(%) Cytotoxicity” value ([2]; human, 24 h, 10 μM) was 4.63%.
`O=C(O)c1cc(=O)[nH]c(=O)[nH]1` [Orotic acid] was tested, and the activity at 10 µM [1] was 52.6% and the “(%) Cytotoxicity” value ([2]; human, 24 h, 10 μM) was 0.45%.
In the case of `CN(C(=O)CN(CCO)CC(=O)N(C)C(C)(C)Cc1ccccc1)C(C)(C)Cc1ccccc1` [Oxethazaine], the activity at 10 µM [1] is reported as 29.4% and the “(%) Cytotoxicity” value ([2]; human, 24 h, 10 μM) is reported as 1.91%.
In the case of `CN(C)[C@@H]1C(O)=C(C(N)=O)C(=O)[C@@]2(O)C(O)=C3C(=O)c4c(O)cccc4[C@@](C)(O)[C@H]3[C@H](O)[C@@H]12` [Oxytetracycline], the activity at 10 µM [1] is reported as 46.2% and the “(%) Cytotoxicity” value ([2]; human, 24 h, 10 μM) is reported as 3.05%.
